# Earlier results, collected in patent US10772852B2, “Compositions and methods for combination pharmacological treatments to induce a prolonged, mild decrease in core body temperature” (priority 2015, dated 2020).
# How the values were obtained:
# [1] = system: women with ovarian cancer; details: on average, Kumar et al. (2013)
# [2] = Boyle et al. 2013
# mice = details: Reilly et al. 2013
Compound,likelihood to survive for 5 years after diagnosis versus women not taking the drug [1],reduction in the risk of cardiovascular events ([2]; 29 different studies) [%],reduction in the risk of MI ([2]; nine studies) [%],reduction in the risk of heart failure ([2]; seven studies) [%],"effect on obesity, diabetes, and fatty liver (mice)"
CN(C)C(=N)N=C(N)N [metformin],nearly four times more likely to survive for 5 years,10,12,10,
CC(C)c1ccc2oc3nc(N)c(C(=O)O)cc3c(=O)c2c1 [amlexanox],,,,,"reverse obesity, diabetes, and fatty liver in mice"
